Values quoted from earlier work, collected in US9446009B2, “Methods for treating conditions of the nail unit” (Hallux, Inc., priority 2004, dated 2016).
Values after ≈ are worked out from the molar mass of the structure shown.

Key:
Conditions in all cases: in vitro
[1] = tested on: Trichophyton mentagrophytes
Trichophyton tonsurans = tested on: Trichophyton tonsurans
Trichophyton verrucosum = tested on: Trichophyton verrucosum
Trichophyton rubrum = tested on: Trichophyton rubrum

| SMILES | MIC Ranges [1] | MIC Ranges (Trichophyton tonsurans) | MIC Ranges (Trichophyton verrucosum) [µg/mL] | MIC Ranges (Trichophyton rubrum) |
| --- | --- | --- | --- | --- |
| OC(Cn1cncn1)(Cn1cncn1)c1ccc(F)cc1F [Fluconazole] | 16 to 32 µg/mL | 0.25 to 8 µg/mL | 16 (≈ 52.2 µM) |  |
| c1ccc(-c2ccc(C(c3ccccc3)n3ccnc3)cc2)cc1 (centres unmarked) [Bifonazole] | 0.125 to 0.25 µg/mL | ≦0.016-0.5 mcg/ml | 8 (≈ 25.8 µM) | <0.016 to 1 µg/mL |
| Clc1ccc(COC(Cn2ccnc2)c2ccc(Cl)cc2Cl)c(Cl)c1 (centres unmarked) [Miconazole] | 1 µg/mL (≈ 2.4 µM) | 0.016 to 0.25 µg/mL | 4 (≈ 9.61 µM) | 0.008 to 4 µg/mL |
| Cc1cc(C2CCCCC2)n(O)c(=O)c1 [Ciclopiroxolamine] | 0.5 to 1 µg/mL | 0.125 to 1 µg/mL | 4 (≈ 19.3 µM) | <0.03 to 8 µg/mL |
| CC(=O)N1CCN(c2ccc(OCC3COC(Cn4ccnc4)(c4ccc(Cl)cc4Cl)O3)cc2)CC1 (centres unmarked) [Ketoconazole] | 0.008 to 4 µg/mL | 0.016 to 0.125 µg/mL | 4 (≈ 7.53 µM) |  |
| COC1=CC(=O)C[C@@H](C)[C@]12Oc1c(Cl)c(OC)cc(OC)c1C2=O [Griseofulvin] | 0.016 to 0.125 µg/mL | 0.5 to 1 µg/mL | 1 (≈ 2.83 µM) | 0.016 to 8 µg/mL |
| CN(C/C=C/C#CC(C)(C)C)Cc1cccc2ccccc12 [Terbinafine] | ≦S0.001 mcg/ml | ≦0.001-0.008 mcg/ml | 1 (≈ 3.43 µM) | ≦0.0001-1 ^ mcg/ml |
